According to patent US20100190809A1, “COMBINATION FORMULATIONS” (priority 2007, published 2010):

Assay: Tablet dissolution in 0.01M HCl+1% sodium laurylsulfate, 50 rpm
Assay type: physicochemical
Method: The tablets were measured on dissolution in a medium of 0.01M HCl+1% sodium laurylsulfate (SLS), 50 rpm. The results reported in the following tables are the percentages of release drug substance. Exp 1, exp 2, etc. refer to a first, a second, etc. experiment under the same conditions.
Two coating trials were performed using the tablet core samples with a compression force of 1030 daN and 1266 daN. The coating material was polyvinyl alcohol (PVA). The film coated tablets were measured on dissolution in medium 0.01 M HCl+1% SLS, 50 rpm.

Row | Compound | impact of the coating on the release (PVA film coated tablets) | release out of the coated tablets compared to the cores (PVA film coated tablets) | influence of the compression force on dissolution (TMC125 compared with TMC114)
1 | CC(C)CN(C[C@@H](O)[C@H](Cc1ccccc1)NC(=O)O[C@H]1CO[C@H]2OCC[C@H]21)S(=O)(=O)c1ccc(N)cc1 [TMC114, (1S,2R,3R,3aS,6aR)-{3-[(4-aminobenzenesulfonyl)isobutyl-amino]-1-benzyl-2-hydroxypropyl}carbamic acid hexahydrofuro[2,3-b]furan-3-yl ester monoethanolate] | only a minor impact | – | –
2 | Cc1cc(C#N)cc(C)c1Oc1nc(Nc2ccc(C#N)cc2)nc(N)c1Br [TMC125, 4-[[6-amino-5-bromo-2-[(4-cyanophenyl)amino]-4-pyrimidinyl]oxy]-3,5-dimethylbenzonitrile] | – | somewhat faster | more influenced
